Laboratory results published in PubChem BioAssay (NCI).
Several values for one entry are separate records, joined by “and”; a condition that tells them apart may be missing. Equal entries are not always repeated.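 The compound was tested at five concentrations on cells cultured in 96-well plates, with a 48-hour exposure period. GI50 marks 50% less growth. TGI marks complete inhibition of growth.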

Experiments:
Experiment in all cases: NCI tumour cell line growth inhibition, 48 h
LOX IMVI melanoma = system: LOX IMVI melanoma
HL-60(TB) leukemia = system: HL-60(TB) leukemia
HS 578T breast = system: HS 578T breast
HCT-15 colon = system: HCT-15 colon
COLO 205 colon = system: COLO 205 colon
UACC-62 melanoma = system: UACC-62 melanoma
A498 renal = system: A498 renal
NCI-H23 lung = system: NCI-H23 lung
MCF7 breast = system: MCF7 breast
M14 melanoma = system: M14 melanoma

Structure (SMILES)	TGI (LOX IMVI melanoma)	TGI (HL-60(TB) leukemia)	TGI (HS 578T breast)	TGI (HCT-15 colon)	TGI (COLO 205 colon)	TGI (UACC-62 melanoma)	TGI (A498 renal)	TGI (NCI-H23 lung)	TGI (MCF7 breast)	TGI (M14 melanoma)	GI50 (LOX IMVI melanoma)	GI50 (HCT-15 colon)	GI50 (COLO 205 colon)	GI50 (UACC-62 melanoma)	GI50 (A498 renal)	GI50 (NCI-H23 lung)	GI50 (M14 melanoma)	GI50 (HL-60(TB) leukemia)	GI50 (HS 578T breast)	GI50 (MCF7 breast)
Nc1ccc2[nH]cc(CCC(=O)O)c2c1	> 100 µM	76.5 µM	> 100 µM	> 100 µM	> 100 µM	> 100 µM	> 100 µM	> 100 µM	> 100 µM	> 100 µM	–	–	–	–	–	–	–	–	–	–
Nc1nc(N)c2cc(CNc3ccc(C(=O)NC(CC(=O)O)C(=O)O)c(Cl)c3)ccc2n1 (configuration not stated)	> 500 µM	> 500 µM	> 500 µM	> 500 µM	> 500 µM	> 500 µM	> 500 µM	64 µM and 491 µM	> 500 µM	> 500 µM	0.05 µM	0.05 µM	0.462 µM	0.05 µM	0.05 µM	0.05 µM	0.05 µM	–	–	–
COc1ccc2c(c1)C(C)Cc1c(ncnc1-n1cnc3cc(C)ccc31)N2C (configuration not stated)	14.5 µM	0.433 µM	31.7 µM	12.9 µM	0.388 µM	18 µM	0.0889 µM	23.4 µM	12.7 µM	13.6 µM	0.0642 µM	0.207 µM	0.176 µM	0.0436 µM	0.0255 µM	0.4 µM	0.067 µM	0.0956 µM	0.0686 µM	0.0379 µM
COC(=O)CCC1=C(CC(=O)OC)C(C)=N/C1=C\c1[nH]c(-c2ccc[nH]2)cc1OC	3.11 µM	14.3 µM	18.7 µM	15.2 µM	16.3 µM	11.5 µM	23.9 µM	21 µM	13.5 µM	16.2 µM	0.788 µM	2.04 µM	3.79 µM	3.09 µM	10.6 µM	4.42 µM	4.51 µM	2.56 µM	4.09 µM	2.38 µM
COC(=O)c1cc(/C=C/c2ccc(S(N)(=O)=O)cc2)ccc1O	> 100 µM	> 100 µM	72.1 µM	> 100 µM	> 100 µM	66 µM	20.2 µM	> 100 µM	> 100 µM	> 100 µM	30 µM	27 µM	29.8 µM	25.6 µM	0.0161 µM	> 100 µM	35.3 µM	> 100 µM	29.7 µM	30.7 µM
C/C(=N\NC(=S)N1CC2CCC(CC2)C1)c1ccccn1	1.81 µM	1.21 µM	3.87 µM	2.51 µM	0.0719 µM	3.3 µM	1.91 µM	3.34 µM	1.44 µM	1.21 µM	0.0428 µM	0.0313 µM	0.0146 µM	0.309 µM	0.416 µM	0.0179 µM	0.0431 µM	0.0482 µM	0.226 µM	< 0.0145 µM
Cc1ncc([N+](=O)[O-])n1CCNS(=O)(=O)CCCn1ncnc1[N+](=O)[O-]	> 100 µM	> 100 µM	> 100 µM	> 100 µM	> 100 µM	> 100 µM	> 100 µM	> 100 µM	> 100 µM	> 100 µM	–	–	–	–	–	–	–	–	–	–
Cn1cc(-c2ccc(-c3cncc(Cl)c3N3CCC4(CCNC4=O)CC3)cc2)cn1	> 100 µM	55.5 µM	> 100 µM	> 100 µM	> 100 µM	> 100 µM	> 100 µM	> 100 µM	> 100 µM	> 100 µM	77.1 µM	40.1 µM	10.6 µM	60.7 µM	14.1 µM	> 100 µM	76 µM	20.4 µM	80.1 µM	38.5 µM
